{
  "source": "patent US9913833B2",
  "about": "“Methods of treating developmental disorders using pipradrol” (Ovid Therapeutics Inc., priority 2015, dated 2018)",
  "origin": "cited, not measured here",
  "test_system": "depression",
  "details": "published study on 111 individuals with depression",
  "data": [
    {"smiles": "OC(c1ccccc1)(c1ccccc1)C1CCCCN1", "note": "(stereo not shown) [pipradrol]", "values": [
      {"measurement": "efficacy in depression compared with placebo", "result": "not superior to placebo"}
    ]}
  ]
}
